In patent US8178506B2, “Oligomeric compounds and compositions for use in modulation of small non-coding RNAs” (Regulus Therapeutics Inc., priority 2003, dated 2012):
In the oligonucleotide strings, read from the 5' end, every base follows the letter of its sugar. An asterisk marks phosphorothioate; unmarked linkages are phosphodiester. Other units and linkages are bracketed, terminal groups are in braces. A string of capitals states the bases alone. e = 2'-O-(2-methoxyethyl) (MOE); [5mC] = 5-methylcytosine

Assays:
[1] = tested on: mir-21 pri-miRNA; assay: mir-21 pri-miRNA expression in HeLa cells (real-time RT-PCR); format: cell-based, human; conditions: HeLa cells, 100 nM, real-time RT-PCR
[2] = tested on: mir-143 pri-miRNA; assay: mir-143 pri-miRNA levels in differentiating adipocytes (real-time RT-PCR); format: cell-based, human; conditions: differentiated adipocytes 9 days vs 3 days post-differentiation
Experimental: Here, oligomeric compounds targeting mir-143 were transfected into preadipocytes which were then induced to differentiate, in order to assess the effects of these compounds on mir-143 pri-miRNA levels during differentiation. mir-143 pri-miRNA levels were assessed on days 3 and 9 after differentiation.
In addition to the uniform 2′-MOE phosphorothioate oligomeric compound ISIS Number 327901 (SEQ ID NO: 319) targeting mature mir-143, a 5-10-7 gapmer oligomeric compound, ISIS Number 340927 (SEQ ID NO: 319), was designed to target mature mir-143. […] ISIS 342672 and ISIS 342673 are uniform 2′-MOE phosphorothioate oligomeric compounds 22 nucleotides in length. ISIS Number 342677 (SEQ ID NO: 789) and ISIS Number 342678 (SEQ ID NO: 758) are the corresponding 5-10-7 scrambled 2′-MOE gapmer oligomeric compounds. All cytidine residues are 5-methylcytidines. […]
These compounds were transfected into differentiating adipocytes and their effects on levels of the mir-143 pri-miRNA molecule were assessed in pre-adipocytes vs. differentiated adipocytes, by real-time RT-PCR using the primer/probe set specific for the mir-143 pri-miRNA (forward primer=ISIS 339314, SEQ ID NO: 786; reverse primer=ISIS 342897, SEQ ID NO.: 787; probe=ISIS 342898, SEQ ID NO.: 788). […]

Question: For “327917 (antisense eT*e[5mC]*eA*eA*e[5mC]*eA*eT*e[5mC]*eA*eG*eT*e[5mC]*eT*eG*eA*eT*eA*eA*eG*e[5mC]*eT*eA) [compound 327917]”, which “mir-21 pri-miRNA expression % UTC” value [1] is on record?
Answer: Its value is 249 % UTC.

Question: For “TGAGCTACAGTGCTTCATCTCA [ISIS 327901] (chemistry not given here) [uniform 2′-MOE PS; targets mir-143]”, which “levels of the mir-143 pri-miRNA” value [2] is on record?
Answer: Its value is “approximately 4 fold”.
